The values that follow come from US8710098B2, “Group of amino substituted benzoyl derivatives and their preparation and their use” (priority 2008, dated 2014).

In brackets after ≈: the same amount, converted by molar mass.

Test [1] deals with HIV-1. Particulars: HIV-1 P24 antigen in supernatant 4 days (96 h) after addition of compounds.
Description: (§1) The inhibitory activities of the compounds proposed in this invention to HIV-1 were measured using HIV-1 P24 antigen kit.
(§2) DMSO solutions of samples of test compounds listed in Table 2 diluted to 8 different concentrations and the solution of the positive control AZT (azidothymidine, 0.15 ng/ml) are respectively added into 96 well plates, duplications are set for each of the dilutions, and negative control samples are also made. Aliquots of 100 μl 2×10^5 cell/ml suspension are inoculated onto the 96 well cell culture plates and cultured in an incubator under a condition of 37° C., 5% CO2 and saturated humidity. The pathologic changes of the cells are observed every day. The HIV-1 P24 antigen contents in supernatant cells are measured in 4 days (96 h) after addition of the test compounds according to the operation procedure provided by the HIV-1 P24 antigen kit.
The target of test [2] is T1, hA3G degradation mediated by HIV-1 Vif (UniProt P69723+Q9HC16).
T1 construct: expressed in transfected cells
Description: Screening experiment for up-regulation activity to hA3G (YFP-fused hA3G co-expressed with HIV-1 Vif, fluorescence). The class given is cell-based, human. As to conditions: YFP fluorescence of cells co-expressing Vif and hA3G-YFP; excitation 485 nm, detection 520 nm; averages of duplicates. An excerpt: Based on the advances making research on the hA3G degradation mediated by HIV-1 Vif, this invention establishes a high throughput anti-HIV-1 drug screening model using hA3G degradation mediated by HIV-1 Vif as target, to screen small molecule active compounds capable of inhibiting this degradation process. The function principle of this model is that HIV-1 Vif protein and hA3G fused yellow fluorescent protein (YFP) co-expressed in the cells, then the intracellular fluorescence intensity (at […]) decreases owing to the degradation of hA3G caused by Vif and subsequent degradation of YEP fused on hA3G. By means of measuring the change of fluorescent intensity, the influence of the screened compounds on the degradation of hA3G caused by Vif can quantitatively be analyzed. Simultaneously, to differentiate the non-specific inhibitory effect of diverse ubiquitin degradation route in the samples, this invention establishes a recheck model based on the detection of P53 degradation caused by the product of adenovirus early gene, to assure that the positive samples screened out by the proposed model can specifically block the degradation of hA3G caused by Vif.
Screening Experiment for Up-Regulation Activity to hA3G
The cells are picked up and cultured a culture bottle. When the cells grow full of the culture bottle, old culture medium is discarded and the cells are digested with digestion medium. When the cells turn round, the digestion medium is discarded and the culture medium is added in at once, the bottom of the bottle is gently blown with a pipette to make the cells disengage the bottle bottom and disperse into single cell suspension. After counting the cells using blood cell counting chamber, the cell suspension is inoculated into a culture dish for transfection. The medium containing the plasmid to be transfected and the transfection reagents is gently mixed up and incubated at room temperature. The medium is then added into the supernatant of the cell culture and cultured for a certain period of time. The old culture medium is then sucked out, the cells are digested with digestive medium, the digestive medium is subsequently discarded and culture medium is immediately added. The medium is gently blown to disperse the cells into single cell suspension. After counting the cells using blood cell counting chamber, the cells are ready for inoculation.
Samples of compounds[…]Pure tested compounds are dissolved in DMSO, the solution is diluted with equal proportional distilled water. The diluent is used to test the cell systems.
Sample solution of different concentration is added into the supernatant of a cell culture. After the cells are continuously cultured, old culture medium is sucked out and the cells are blown with PBS buffer until the cells completely disengage from the culture bottle.
The fluorescence intensity values of the cell suspension with test compound samples, positive control samples and negative control samples are respectively measured with fluorometer, the excitation wavelength is 485 nm and the detection wavelength 520 nm. Averages of duplicated measurements are taken as the results.
The measured fluorescence intensity values of the negative control samples (blink sample) subtracted from those of test compound samples, the results are taken as YFP fluorescence of different groups. Relative fluorescence intensity=fluorescence intensity of a test sample group/fluorescence intensity of the positive control group×100% Inhibition rate of degradation=(test sample group−negative control group)/(positive control group−negative control group)×100%

Test [3] has as its system HIV-1. Description: microbe, parasite or virus in culture. As to conditions: Human immunodeficiency virus 1, 96 h, read-out: inhibitory activity to HIV-1, IC50.
Description: as §1, §2

T1 sequence (P69723 whole entry): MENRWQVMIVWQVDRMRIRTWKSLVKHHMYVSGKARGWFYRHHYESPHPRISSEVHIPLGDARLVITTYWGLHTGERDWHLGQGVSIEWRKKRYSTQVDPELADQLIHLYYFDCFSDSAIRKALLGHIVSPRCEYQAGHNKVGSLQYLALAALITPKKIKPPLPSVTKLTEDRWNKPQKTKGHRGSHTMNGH
T1 sequence (Q9HC16 whole entry): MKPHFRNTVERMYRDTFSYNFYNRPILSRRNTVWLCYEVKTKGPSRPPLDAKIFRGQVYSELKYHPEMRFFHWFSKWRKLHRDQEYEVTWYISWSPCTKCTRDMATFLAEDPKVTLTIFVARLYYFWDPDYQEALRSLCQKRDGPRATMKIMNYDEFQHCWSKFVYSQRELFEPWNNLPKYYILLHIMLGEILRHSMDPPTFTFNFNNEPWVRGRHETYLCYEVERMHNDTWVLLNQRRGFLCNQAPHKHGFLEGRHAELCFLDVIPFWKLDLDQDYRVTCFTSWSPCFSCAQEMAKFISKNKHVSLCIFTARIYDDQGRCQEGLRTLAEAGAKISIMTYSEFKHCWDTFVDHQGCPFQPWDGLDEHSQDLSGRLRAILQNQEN

Consider “3-amino-4-methoxybenzanilide [Compound 2621]”, for which the “inhibitory activity to HIV-1, IC50” value with HIV-1 [1] is less than 0.0137 µg/mL. The “hA3G up-regulation activity (%)” value in test [2] is 36.2%.
`COc1ccc(C(=O)Nc2cc(OC)c(OC)c(OC)c2)cc1NC(=O)C(C)Br` (stereo not drawn) [Compound 26]: the IC50 with HIV-1 [3] was 0.0203 µg/mL (≈ 0.0434 µM). The “hA3G up-regulation activity (%)” value in test [2] was 42.7%.
Regarding `COc1ccc(C(=O)Oc2cc(OC)c(OC)c(OC)c2)cc1NC(=O)C(C)Br` (stereo not drawn) [Compound 35], in the test on HIV-1 [3], the half-maximal inhibitory concentration (IC50) turned out to be 0.0223 µg/mL (≈ 0.0476 µM). Further, the “hA3G up-regulation activity (%)” value in test [2] came out at 44.9%.
In the case of `COc1ccc(S(=O)(=O)Nc2cc(OC)c(OC)c(OC)c2)cc1O` [Compound 90], the “hA3G up-regulation activity (%)” value in test [2] stood at 28.2%.
Still for that read-out and setting: the value for `CCC(=O)Nc1cc(NS(=O)(=O)c2cc(OC)c(OC)c(OC)c2)ccc1OC` [Compound 91, N-(3′-propionamido-4′-methoxyphenyl)-(3,4,5-trimethoxy)benzenesulfonamide] was 16.6%; that for `CCC(=O)Nc1cc(NS(=O)(=O)c2cc(OC)nc(OC)n2)ccc1OC` [Compound 92] was 23.7%.
Turning to `CCC(=O)Nc1cc(S(=O)(=O)Nc2cc(OC)nc(OC)n2)ccc1OC` [Compound 93], the “hA3G up-regulation activity (%)” value in test [2] turned out to be 34.2%.
Take `CCC(=O)Nc1cc(S(=O)(=O)Nc2ccc(OC)c(OC)c2)ccc1OC` [Compound 94]: the “hA3G up-regulation activity (%)” value in test [2] is 16.1%.
As for `CCC(=O)Nc1cc(S(=O)(=O)Nc2ccc(OC)c(OC)c2)cc(F)c1OC` [Compound 95], the “hA3G up-regulation activity (%)” value in test [2] was found to be 8.7%.
As for `CCC(=O)Nc1cc(S(=O)(=O)Nc2ccc(NC)c(OC)c2)ccc1OC` [Compound 96], the “hA3G up-regulation activity (%)” value in test [2] turned out to be 6.9%.
As for `CCC(=O)Nc1cc(C(=O)Nc2ccc(OC)c(S(N)(=O)=O)c2)ccc1OC` [Compound 97], the “hA3G up-regulation activity (%)” value in test [2] was determined as 6.4%.
As to `CNc1cc(C(=O)Nc2ccc(S(N)(=O)=O)c(F)c2)ccc1OC` [Compound 98, N-(3′-fluoro-4′-aminosulfonylphenyl)-3-methylamino-4-methoxybenzamide], the “hA3G up-regulation activity (%)” value in test [2] turned out to be 5.8%.
The same measure, in the same setting: the value for `CCC(=O)Nc1cc(C(=O)Nc2ccc(S(N)(=O)=O)c(OC)c2)ccc1OC` [Compound 99] was 23.6%; that for `CCC(=O)Nc1cc(C(=O)Nc2ccc(S(N)(=O)=O)c(F)c2)ccc1OC` [Compound 100] was 13.6%.
The same measure, in the same setting: for `COc1ccc(C(=O)Nc2cc(OC)c(OC)c(OC)c2)cc1NS(C)(=O)=O` [Compound 101] the value was 22.1%.
Consider `COc1ccc(C(=O)Nc2ccc(OC)c(OC)c2)cc1NS(C)(=O)=O` [Compound 102], for which, in test [2], the “hA3G up-regulation activity (%)” value came out at 10.3%.
Turning to `COc1ccc(C(=O)Oc2cc(OC)c(OC)c(OC)c2)cc1NS(C)(=O)=O` [Compound 103, 3′,4′,5′-trimethoxyphenyl 3-methanesulfamido-4-methoxybenzoate], in test [2], the “hA3G up-regulation activity (%)” value came to 26.1%.
Take `CCC(=O)Nc1cc(C(=O)Nc2cc(OC)c(OC)c(OC)c2)ccc1OC` [Compound 261, N-(3′,4′,5′-trimethoxyphenyl) 3-propionamido-4-methoxybenzamide]: the half-maximal inhibitory concentration (IC50) in the test on HIV-1 [3] is 0.0227 µg/mL (≈ 0.0584 µM). Moreover, the “hA3G up-regulation activity (%)” value in test [2] is listed as 43.9%.
Consider `COc1ccc(C(=O)Nc2cc(OC)c(OC)c(OC)c2)cc1N` [Compound 262, N-(3′,4′,5′-trimethoxyphenyl) 3-amino-4-methoxybenzamide], for which, in the test on HIV-1 [3], the half-maximal inhibitory concentration (IC50) was determined as 0.0244 µg/mL (≈ 0.0734 µM). Further, the “hA3G up-regulation activity (%)” value in test [2] came to 36.2%.
As for `COc1ccc(C(=O)Nc2cc(OC)c(OC)c(OC)c2)cc1NC(=O)C(F)(F)F` [Compound 263, N-(3′,4′,5′-trimethoxyphenyl)-3-trifluoroacetamido-4-methoxybenzamide], the half-inhibitory concentration (IC50) in the test on HIV-1 [3] was less than 0.0137 µg/mL. Moreover, the “hA3G up-regulation activity (%)” value in test [2] stood at 24.4%.
As for `CCC(=O)Nc1cc(C(=O)Oc2cc(OC)c(OC)c(OC)c2)ccc1OC` [Compound 351, 3′,4′,5′-trimethoxyphenyl 3-propionamido-4-methoxybenzoate], the IC50 with HIV-1 [3] stood at 0.0299 µg/mL (≈ 0.0768 µM). For the same compound, the “hA3G up-regulation activity (%)” value in test [2] was determined as 36.7%.
As to `COc1ccc(C(=O)Oc2cc(OC)c(OC)c(OC)c2)cc1N` [Compound 352, 3′,4′,5′-trimethoxyphenyl 3-amino-4-methoxybenzoate], the “inhibitory activity to HIV-1, IC50” value in the test with HIV-1 [1] worked out at 0.0554 µg/mL. Besides, the “hA3G up-regulation activity (%)” value in test [2] came to 37.0%.
`COc1ccc(C(=O)Oc2cc(OC)c(OC)c(OC)c2)cc1NC(=O)C(F)(F)F` [Compound 353, 3,4,5-trimethoxyphenyl 3-trifluoroacetamido-4-methoxybenzoate]: the “hA3G up-regulation activity (%)” value in test [2] was 39.0%.
On to `CCC(=O)Nc1cc(C(=O)Nc2ccc(OC)cc2)ccc1OC` [Compound 2611, N-(4′-methoxyphenyl)-3-propionamido-4-methoxybenzamide], for which, in the test on HIV-1 [3], the concentration for half-maximal inhibition (IC50) was 0.017 µg/mL (≈ 0.0518 µM). For the same compound, in test [2], the “hA3G up-regulation activity (%)” value is given as 28.9%.
Take `CCC(=O)Nc1cc(C(=O)Nc2ccc([N+](=O)[O-])cc2)ccc1OC` [Compound 2612, N-(4′-nitrophenyl)-3-propionamido-4-methoxybenzamide]: in test [2], the “hA3G up-regulation activity (%)” value was 22.3%.
On to `CCC(=O)Nc1cc(C(=O)Nc2ccc(Cl)cc2)ccc1OC` [Compound 2613, N-(4′-chlorophenyl)-3-propionamido-4-methoxybenzamide], for which the IC50 in the test with HIV-1 [3] stood at 0.0138 µg/mL (≈ 0.0415 µM). Further, the “hA3G up-regulation activity (%)” value in test [2] was found to be 27.8%.
